Experimental findings from patent US7273864B2, “Compositions and methods for inducing osteogenesis” (The Scripps Research Institute, priority 2002, dated 2007) are described below.

The test system of test [1] is C3H10T1/2 cells. As to the kind of experiment: Histochemical staining for endogenous alkaline phosphatase expression in C3H10T1/2 cells. It counts as cell-based, mouse. The note with it: 4 days; for cells stained positive for ALP: Compound A 2 μM, BMP-4 300 ng/mL. The method, then: Histochemical Staining for Endogenous Alkaline Phosphatase Expression: C3H10T1/2 cells were seeded in 96-well assay plates (Corning) at a density of 10,000 cells/well, and treated with 300 ng/mL of BMP-4, 1% DMSO, 2 μM of Compound A, or 100 ng/mL of BMP and 1 μM of Compound A for 4 days. The cells were then washed 3 times with 200 μL PBS and fixed by a 15 minute incubation in a 10% formalin solution (Sigma). The fixed cells were washed again with 3 times with 200 μL PBS and stained with the Alkaline Phosphatase Staining Kit 86R (Sigma Diagnostics) using the manufacturer's protocol. The images were taken on a Nikon Eclipse TE300 microscope, and ALP positive cells were counted manually from the images.
C3H10T1/2 cells were treated with DMSO (a), 300 ng/mL of BMP-4 (b), 2 μM of Compound A (c), and 100 ng/mL of BMP and 1 μM of Compound A (d) for 4 days and stained for ALP activity. ALP positive cells were stained red and the cell nuclei were stained blue.

Test [2] concerns alkaline phosphatase, collagen type I and osteoponin. As to the kind of experiment: Morphological and transcriptional analysis of osteogenesis (FIG. 5). It counts as cell-based.
Test [3] deals with Cbfa1/Runx2 gene promoter. In words: Cbfa1/Runx2 reporter gene assay in 3T3-L1 cells. It counts as cell-based, mouse. Conditions: 3T3-L1 pre-adipocyte cells. The text has this:
(§1) Cbfa1/Runx2 Reporter Gene Assay: The murine Cbfa1/Runx2 gene promoter region (1818 bp) was amplified by PCR from mouse genomic DNA library (Clontech) using the following primers: The resulting PCR product was inserted into Topo cloning vector (Invitrogen), amplified and sequenced. The resulting plasmid was digested with restriction enzymes Mlu and XhoI (New England Biolab) and the 1.8 kb fragment was inserted into the Mlu/XhoI cloning sites in pGL3-BV luciferase reporter vector (Promega). For transient transfection assays, cells were seeded in a 6-well plate at a density of 30,000 cells/well in 2 mL of growth medium. After an overnight incubation, the cells reached 80% confluency. Plasmid DNA (1 μg) was transfected into cells using 3 μL of Fugene 6 transfection reagent (Roche) using the manufacturer's protocol. After 8 hours, the transfected cells were plated into 96-well assay plates (Corning) and treated with 300 ng/mL of recombinant human bone morphogenetic protein 4 (BMP-4) (Sigma), 1% DMSO (Sigma) or different concentrations of Compound A (dissolved in DMSO). The cells were incubated for 4 days, then the luciferase activity in the cells was assayed using the Bright-Glo luciferase assay kit (Promega) using the manufacturer's protocol. Luminescence signals were detected by Acquest AD (Molecular Devices) plate reader. […]
(In a reporter assay the amount or activity of a reporter protein is the signal.)

The test system of test [4] is Cbfa1/Runx2 gene promoter. As to the kind of experiment: Cbfa1/Runx2 reporter gene assay, transiently transfected C3H10T1/2 cells. It counts as cell-based, mouse.
Excerpt: as §1

Test [5] has as its system C3H10T1/2 cells. In words: Morphology of C3H10T1/2 cells under light microscopy. Format: cell-based, mouse. Conditions: 2 μM for 4 days. The method, then:
C3H10T1/2 cells were treated with DMSO (1%) and Compound A (purmorphamine) (2 μM) for 4 days. C2C12 cells were treated with DMSO (1%), Compound A (purmorphamine) (2 μM) or BMP-4 (300 ng/mL) for 4 days. The morphology of the cells was examined under light microscopy.

The subject of another test is 3T3-L1 cells. In words: Alkaline phosphatase (ALP) activity in 3T3-L1 pre-adipocyte cells. It counts as cell-based, mouse. The method, then:
Alkaline Phosphatase Assay: C3H10T1/2 cells were expanded in T175 flasks; cells at the 13th passage were detached by trypsin/EDTA and diluted in the growth media. The resulting cell suspension was then plated into black clear bottom 384-well plates (Greiner) with 2500 cells/well in 100 μL growth media using a Multi-drop™ liquid delivery system (Titertek Instruments). After an overnight incubation, cells were attached to the bottom of the wells. A stock solution of Compound A in DMSO (500 nL) was delivered into corresponding well using a Mini Trak™ multiposition dispenser system (Packard BioScience) to make the final concentration of 5 μM of each compound. Cells were then incubated at 37° C. in 5% CO2. […] After 5 min, 10 μL of alkaline phosphatase substrate solution (1 mM in pH 10 buffer, 2′-[2′-benzothiazoyl]-6′-hydroxybenzothiazole phosphate (Promega) was added to each well. After a 15 minute incubation at room temperature, the plates were read on an Acquest high-throughput plate reader (Molecular Devices) using the manufacturer's protocol.
(§2) 3T3-L1 cells, C2C12 cells, and MC-3T3E1 cells were treated with DMSO (control), BMP-4(300 ng/mL), BMP-4 (100 ng/mL) and Compound A (1 μM), or 0.1 μM, 0.5 μM, 1 μM, 5 μM, or 10 μM Compound A. ALP activity was measured as described in Example 1 above, after four days of treatment.

Test [6] relates to Cbfa1/Runx2 gene promoter. As to the kind of experiment: Cbfa1/Runx2 reporter gene assay, stably transfected MC3T3-E1 cells. It counts as cell-based, mouse.
Excerpt: as §1, with “For transient transfection assays, cells were seeded in a 6-well plate at a density of 30,000 cells/well in 2 mL of growth medium.” left out, “reader. Due to the low transfection efficiency of MC3T3-E1 cells, the Cbfa1/Runx2 reporter assay was carried out with stably transfected MC3T3-E1 cells.” for “reader.”

Test [7] relates to Cbfa1/Runx2 gene promoter. As to the kind of experiment: Cbfa1/Runx2 reporter gene assay in C2C12 cells. It counts as cell-based, mouse.
Excerpt: as §1

Test [8] relates to C3H10T1/2 cells. In words: Alkaline phosphatase (ALP) enzymatic assay in C3H10T1/2 cells. It counts as cell-based, mouse. On the procedure:
Alkaline Phosphatase Assay: C3H10T1/2 cells were expanded in T175 flasks; cells at the 13th passage were detached by trypsin/EDTA and diluted in the growth media. The resulting cell suspension was then plated into black clear bottom 384-well plates (Greiner) with 2500 cells/well in 100 μL growth media using a Multi-dropTM liquid delivery system (Titertek Instruments). After an overnight incubation, cells were attached to the bottom of the wells. A stock solution of Compound A in DMSO (500 nL) was delivered into corresponding well using a Mini TrakTM multiposition dispenser system (Packard BioScience) to make the final concentration of 5 μM of each compound. Cells were then incubated at 37° C. in 5% CO2. After 4 days, the media was removed and 10 μL of Passive Lysis Buffer (Promega) was added into each well. After 5 min, 10 μL of alkaline phosphatase substrate solution (1 mM in pH 10 buffer, 2'-[2'-benzothiazoyl]-6'-hydroxybenzothiazole phosphate (Promega) was added to each well. After a 15 minute incubation at room temperature, the plates were read on an Acquest high-throughput plate reader (Molecular Devices) using the manufacturer's protocol. C3H10T1/2 cells were treated with DMSO (control), BMP-4(300 ng/mL), BMP-4 (100 ng/mL) and Compound A (1 μM), or 0.5 μ[…], or 10 μM Compound A. Alkaline phosphatase (ALP) activity was measured as described in Example 2 above, after two, four, and six days of treatment.

Another test deals with MC3T3-E1 cells. In words: Terminal differentiation of MC3T3-E1 pre-osteoblast cells. Format: cell-based, mouse.
Excerpt: Mouse MC3T3-E1 cells are progenitor cells committed to an osteoblast lineage. […] Since MC3T3-E1 cells already have high levels of endogenous Cbfa1/Runx2, slight up-regulation of this gene may be sufficient to promote terminal differentiation (see, e.g., Xiao et al., J. Cell. Biochem. 74:596 (1999) and Wang et al., J. Bone. Miner. Res. 14:893 (1999)). The change of Cbfa1/Runx2 reporter activity in stably transfected MC3T3-E1 cells is not dramatic when treated with Compound A.
as §2

On to `c1ccc2c(Oc3nc(Nc4ccc(N5CCOCC5)cc4)c4ncn(C5CCCCC5)c4n3)cccc2c1` [Compound A, 2-(1-Naphthoxy)-6-(4-morpholinoanilino)-9-cyclohexylpurine], for which the “cells stained positive for ALP” value in the test with C3H10T1/2 cells [1] is listed as “more than 80%”. The “expression of alkaline phosphatase, collagen type I and osteoponin” value in test [2] (FIG. 5A) was “induces expression”. In [2] (FIG. 5B), the DNA microarray analysis entry was “induces expression of a number of transcription factors and proteins”. The Cbfa1/Runx2 expression result in [3] is reported as “induces Cbfa1/Runx2 expression”. Also, in [4] (C3H10T1/2 cells, FIG. 4B), the Cbfa1 gene upregulation result was “induces Cbfa1 gene upregulation”. Besides, the “increase in Cbfa1/Runx2 reporter activity” value in [4] (treatment for 4 days, transient transfection) was “more than 6 fold”. Also, the “morphology of the cells” value in the test on C3H10T1/2 cells [5] was “changed from fibroblast (long and spindle-shaped) to osteocyte (small and round)”. Further, in the test with 3T3-L1 cells (optimal concentration of 5 μM), the “increase in ALP level” value is 9 fold. Further, the “change of Cbfa1/Runx2 reporter activity” value in test [6] is on record as “not dramatic”. Further, the Cbfa1/Runx2 gene expression result in test [7] was “can be induced by Compound A to express the Cbfa1/Runx2 gene”. Further, the “effectiveness in inducing the expression of ALP compared with BMP-4” value in the test on C3H10T1/2 cells [8] (C3H10T1/2 cells, FIG. 1) was “more effective than BMP-4”. In addition, the midpoint of the response in the test on C3H10T1/2 cells [8] (Mus musculus, C3H 10T1/2, ALP enzymatic assay, C3H10T1/2 cells), the EC50, lay at 1 µM. Moreover, the “increase in ALP” value with C3H10T1/2 cells [8] (after treatment for 4 days, compared with 1% DMSO treatment) was above 50 fold. For the same molecule, the “terminal differentiation of MC3T3-E1 cells” value with MC3T3-E1 cells is reported as “promote the terminal differentiation”.

B1: BMP-4: recombinant human bone morphogenetic protein 4 (BMP-4) (Sigma) (protein, UniProt P12644 293-408, looked up)
Bone morphogenetic protein 4: SPKHHSQRARKKNKNCRRHSLYVDFSDVGWNDWIVAPPGYQAFYCHGDCPFPLADHLNSTNHAIVQTLVNSVNSSIPKACCVPTELSAISMLYLDEYDKVVLKNYQEMVVEGCGCR
As to B1, the “cells stained positive for ALP” value with C3H10T1/2 cells [1] is listed as 40%. Besides, the “ALP expression level of induced cells compared to cells treated with Compound A” value in the test with C3H10T1/2 cells [1] (histochemical staining) is listed as “higher expression level of ALP”. Further, in the test on 3T3-L1 cells (BMP-4 alone), the “induction of ALP expression” value is reported as “more than 40 fold”. The “terminal differentiation of MC3T3-E1 cells” value in the test on MC3T3-E1 cells is given as “promote the terminal differentiation”.
